Results taken from publication PMC5917010, “Structural basis for GPR40 allosteric agonism and incretin stimulation” (Nature Communications, 2018).
Where two headings read alike, the source gives them in different places.

Legend:
hRORgamma = hRORgamma (Homo sapiens, UniProt P51449); test: hRORgamma binding
GPR40 Y114F = GPR40 Y114F (Homo sapiens, UniProt O14842, Y114F); test: cAMP accumulation assay, Y114F mutant
Description: (§2) HEK293 cells transiently transfected with Promega’s cAMP response element (CRE/luc2P) and a GPR40 construct were plated (40K cells/well) into 96-well microtiter plates using Dulbecco’s Modified Eagle’s Medium (DMEM) supplemented with 10% FBS, 20 mM HEPES, pH 7.4, 100 U/mL Penicillin, 100 µg/mL Streptomycin, and 800 µg/mL Geneticin. Test compounds were serially diluted three-fold in 100% DMSO and immediately diluted in media. […] EC50 values were calculated using a four-parameter logistic curve fitting equation.

[1] = test system: GPCRs (including GPR120), NHRs and Kinases; test: Selectivity panels against GPCRs, NHRs and Kinases
GPR40 L112F = GPR40 L112F (Homo sapiens, UniProt O14842, L112F); test: cAMP accumulation assay, L112F mutant
Description: as §2

GPR40 Y44F = GPR40 Y44F (Homo sapiens, UniProt O14842, Y44F); test: cAMP accumulation assay, Y44F mutant
Description: as §2

wild type ICR mice = test: Intraperitoneal glucose tolerance test (IPGTT) in wild type ICR mice; assay type: in vivo, mouse; conditions: various oral doses
Description: Nine to ten week old male ICR mice (Envigo) and GPR40 KO mice (Taconic) were used. The day before an IPGTT (~1600), animals were fasted in clean cages. The following morning (~0800), animals were randomized on fasting glucose and body weight (N = 6 per group). Mice were orally administered a test article or vehicle 60 min prior to an intraperitoneal (IP) injection of glucose (2g/kg). Blood glucose levels were determined by a glucometer from tail bleeds taken at 0, 15, 30, 60, and 120 min after the glucose challenge. An average of two readings were reported at each time point. Also, blood samples were collected into serum tubes at 0, 3, 6, and 15 min post glucose injection for insulin measurement. Serum tubes were centrifuged at 3000g for 5 min and serum transferred into 96-well plates for insulin analysis by a Mesoscale rat/mouse insulin assay.

hD1 = hD1 (Homo sapiens, UniProt P21728); test: hD1 cAMP; assay type: cell-based; conditions: read-out: hD1 cAMP Rel EC50
hERalpha = hERalpha (Homo sapiens, UniProt P03372); test: hERalpha binding
GPR120 KO mice = test: OGTT in GPR120 KO mice; assay type: in vivo, mouse; conditions: 5 mg/kg
Description: (§1) Eight to thirteen week old male C57BL/6 or KO mice were used. The day before the study, at 1600 hours, animals were transferred into clean cages and food was removed. The following morning (~0800 hours), mice were randomized by block randomization to treatment groups (N = 5–7 per group) so each group had similar mean and standard deviation of body weight and blood glucose. […] Animals were dosed with vehicle (0.5% MC/0.25% Tween-80) or the test article by oral gavage. Group allocations were not blinded from the experimenters who collected the data. After 60 min compound treatment animals were then given an oral gavage of glucose (2 g/kg). At 0, 15, 30, 60, and 120 min post oral glucose, two glucose readings via glucometers were obtained. The average of two glucose readings was reported at each time point. Data were expressed as mean±standard error (s.e.m.). Blood glucose values were analyzed using ANOVA with repeated measures. Cook’s distance was also calculated from linear regression. All animals were included in the analysis with their individual averaged Cook’s distance < 1. Dunnett’s comparison was performed at each time point by R program. Significance is denoted at p < 0.05.

human GPR40 [2] = biological target: T1, human GPR40 (Homo sapiens, UniProt O14842); test: Human GPR40 IP1; assay type: cell-based
T1 construct: HEK293 cells stably overexpressing full length human GPR40; expressed in transfected cells

Rat hepatocyte clearance = assay type: in vitro ADME; conditions: hepatocytes
human GPR40 [3] = biological target: T1, human GPR40; test: Human GPR40 Calcium (Supplementary Table 1); assay type: cell-based
human GPR40 (A1 site) = biological target: T2, human GPR40 (A1 site) (Homo sapiens, UniProt O14842); test: A1 site radioligand binding with [3H]-TAK-875
T2 construct: full length recombinant human GPR40 (GPR40) cDNA; expressed in transfected cells; host or cells: HEK 293, stably transfected; crude cell surface membranes
Description: Crude cell surface membranes were prepared from human embryonic kidney 293 (HEK 293) cells stably transfected (for the wild type) or transiently transfected (for the mutants and corresponding wild type) with full length recombinant human GPR40 (GPR40) cDNA, using differential centrifugation methods.
A1 Site Binding. 10 µL of compound diluted in 100% DMSO and 90 µL of Assay Buffer (50 mM Tris-HCl, pH 7.5, 5 mM CaCl2, 5 mM MgCl2, 0.1% w/v fatty acid-free BSA) were added to a deep 96-well polypropylene assay plate (Beckman Coulter).
Assays were terminated by filtration through GF/C glass fiber filtermats (Perkin Elmer) presoaked in 50 mM Tris–HCl, pH 7.5, using a Mach III cell harvester (TomTec). Filtermats were washed two times with 5 mL of ice-cold 50 mM Tris–HCl, pH 7.5 buffer, dried 1 h in a convection oven at 60 °C and embedded with Meltilex A solid scintillant (Perkin Elmer). Radioactivity was determined as counts per min (cpm) using a Trilux Microbeta plate scintillation counter (Perkin Elmer).

hRORbeta = hRORbeta (Homo sapiens, UniProt Q92753); test: hRORbeta binding
GPR40 S123A = GPR40 S123A (Homo sapiens, UniProt O14842, S123A); test: cAMP accumulation assay, S123A mutant
Description: as §2

PPAR = PPAR binding and functional assays at multiple concentrations; conditions: all PPAR binding and functional assays
hCDK1 = hCDK1 (Homo sapiens, UniProt P06493); test: hCDK1 binding
hNav1.7 = hNav1.7 (Homo sapiens, UniProt Q15858); test: hNav1.7 binding; conditions: read-out: hNav1.7 binding Rel IC50
GPR40 L112A = GPR40 L112A (Homo sapiens, UniProt O14842, L112A); test: cAMP accumulation assay, L112A mutant
Description: as §2

GPR40 KO mice [4] = test: Incretin secretion assay in GPR40 KO mice; assay type: in vivo, mouse
GPR40 KO mice [5] = test: OGTT in GPR40 KO mice; assay type: in vivo, mouse; conditions: high dose of compound 1
Description: as §1

[6] = Drug exposure in plasma after oral dose in wild type C57BL/6 mice; assay type: in vivo, mouse; conditions: 0.03-10 mpk, Supplementary Fig. 9

T2 sequence (O14842 whole entry): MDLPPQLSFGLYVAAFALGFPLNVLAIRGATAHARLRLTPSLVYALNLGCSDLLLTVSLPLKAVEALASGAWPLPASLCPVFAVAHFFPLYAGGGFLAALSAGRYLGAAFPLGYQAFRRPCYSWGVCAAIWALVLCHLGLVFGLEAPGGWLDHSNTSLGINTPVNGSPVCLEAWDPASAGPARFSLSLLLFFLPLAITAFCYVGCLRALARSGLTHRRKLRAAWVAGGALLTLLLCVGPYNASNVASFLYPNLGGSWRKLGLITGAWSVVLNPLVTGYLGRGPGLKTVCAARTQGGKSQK
T1 sequence (O14842 whole entry): as above
GPR40 L112F, sequence (O14842 whole entry L112F): as the sequence (O14842 whole entry) above, with L112F counted along it
hRORgamma, sequence (P51449 whole entry): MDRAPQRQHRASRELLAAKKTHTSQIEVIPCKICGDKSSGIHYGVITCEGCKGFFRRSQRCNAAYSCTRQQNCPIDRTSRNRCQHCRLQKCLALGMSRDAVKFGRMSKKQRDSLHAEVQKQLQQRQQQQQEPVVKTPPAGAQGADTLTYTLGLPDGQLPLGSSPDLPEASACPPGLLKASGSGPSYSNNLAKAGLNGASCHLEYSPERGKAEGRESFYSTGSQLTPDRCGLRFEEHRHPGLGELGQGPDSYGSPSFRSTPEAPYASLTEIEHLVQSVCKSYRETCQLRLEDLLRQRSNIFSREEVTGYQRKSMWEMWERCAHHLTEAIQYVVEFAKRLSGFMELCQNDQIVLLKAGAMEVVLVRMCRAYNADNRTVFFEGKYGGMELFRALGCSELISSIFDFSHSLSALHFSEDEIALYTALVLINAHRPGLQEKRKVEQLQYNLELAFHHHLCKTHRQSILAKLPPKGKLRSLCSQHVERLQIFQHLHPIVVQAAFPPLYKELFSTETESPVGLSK
hCDK1, sequence (P06493 whole entry): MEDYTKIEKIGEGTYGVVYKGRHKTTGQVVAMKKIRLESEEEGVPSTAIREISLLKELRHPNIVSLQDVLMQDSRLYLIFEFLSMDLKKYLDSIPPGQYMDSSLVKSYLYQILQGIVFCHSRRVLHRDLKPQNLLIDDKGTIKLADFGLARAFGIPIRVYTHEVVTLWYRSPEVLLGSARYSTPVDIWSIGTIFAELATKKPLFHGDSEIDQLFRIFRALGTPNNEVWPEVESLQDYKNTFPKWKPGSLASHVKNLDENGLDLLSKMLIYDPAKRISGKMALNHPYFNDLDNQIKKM
hCDK1, sequence (P14635 whole entry partner): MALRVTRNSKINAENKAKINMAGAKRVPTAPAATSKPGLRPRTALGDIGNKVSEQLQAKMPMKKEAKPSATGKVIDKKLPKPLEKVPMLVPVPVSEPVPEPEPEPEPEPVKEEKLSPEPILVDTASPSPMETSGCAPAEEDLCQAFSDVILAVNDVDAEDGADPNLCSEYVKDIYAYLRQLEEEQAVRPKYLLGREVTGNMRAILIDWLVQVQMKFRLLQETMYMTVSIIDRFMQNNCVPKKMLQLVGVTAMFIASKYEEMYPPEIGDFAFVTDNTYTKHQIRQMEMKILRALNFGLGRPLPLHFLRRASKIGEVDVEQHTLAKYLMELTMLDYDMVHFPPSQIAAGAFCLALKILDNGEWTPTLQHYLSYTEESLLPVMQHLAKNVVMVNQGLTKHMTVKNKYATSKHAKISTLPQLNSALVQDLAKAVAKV
GPR40 Y114F, sequence (O14842 whole entry Y114F): as the sequence (O14842 whole entry) above, with Y114F counted along it
hERalpha, sequence (P03372 whole entry): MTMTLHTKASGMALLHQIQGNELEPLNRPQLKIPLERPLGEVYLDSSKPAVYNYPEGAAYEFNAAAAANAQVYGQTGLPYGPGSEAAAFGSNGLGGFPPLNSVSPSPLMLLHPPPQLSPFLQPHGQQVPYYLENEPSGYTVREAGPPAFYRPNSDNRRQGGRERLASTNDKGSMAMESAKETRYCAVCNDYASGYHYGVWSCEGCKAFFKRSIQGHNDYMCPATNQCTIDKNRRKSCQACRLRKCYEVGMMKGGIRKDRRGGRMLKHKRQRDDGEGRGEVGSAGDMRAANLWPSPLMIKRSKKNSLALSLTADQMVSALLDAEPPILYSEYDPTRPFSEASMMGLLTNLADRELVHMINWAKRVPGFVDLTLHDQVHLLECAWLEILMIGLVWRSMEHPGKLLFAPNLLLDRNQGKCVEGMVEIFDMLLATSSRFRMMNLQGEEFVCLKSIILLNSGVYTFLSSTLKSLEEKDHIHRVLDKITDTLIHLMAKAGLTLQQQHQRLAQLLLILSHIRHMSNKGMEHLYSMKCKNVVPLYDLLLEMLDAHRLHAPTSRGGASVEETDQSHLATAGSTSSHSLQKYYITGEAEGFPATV
hNav1.7, sequence (Q15858 whole entry): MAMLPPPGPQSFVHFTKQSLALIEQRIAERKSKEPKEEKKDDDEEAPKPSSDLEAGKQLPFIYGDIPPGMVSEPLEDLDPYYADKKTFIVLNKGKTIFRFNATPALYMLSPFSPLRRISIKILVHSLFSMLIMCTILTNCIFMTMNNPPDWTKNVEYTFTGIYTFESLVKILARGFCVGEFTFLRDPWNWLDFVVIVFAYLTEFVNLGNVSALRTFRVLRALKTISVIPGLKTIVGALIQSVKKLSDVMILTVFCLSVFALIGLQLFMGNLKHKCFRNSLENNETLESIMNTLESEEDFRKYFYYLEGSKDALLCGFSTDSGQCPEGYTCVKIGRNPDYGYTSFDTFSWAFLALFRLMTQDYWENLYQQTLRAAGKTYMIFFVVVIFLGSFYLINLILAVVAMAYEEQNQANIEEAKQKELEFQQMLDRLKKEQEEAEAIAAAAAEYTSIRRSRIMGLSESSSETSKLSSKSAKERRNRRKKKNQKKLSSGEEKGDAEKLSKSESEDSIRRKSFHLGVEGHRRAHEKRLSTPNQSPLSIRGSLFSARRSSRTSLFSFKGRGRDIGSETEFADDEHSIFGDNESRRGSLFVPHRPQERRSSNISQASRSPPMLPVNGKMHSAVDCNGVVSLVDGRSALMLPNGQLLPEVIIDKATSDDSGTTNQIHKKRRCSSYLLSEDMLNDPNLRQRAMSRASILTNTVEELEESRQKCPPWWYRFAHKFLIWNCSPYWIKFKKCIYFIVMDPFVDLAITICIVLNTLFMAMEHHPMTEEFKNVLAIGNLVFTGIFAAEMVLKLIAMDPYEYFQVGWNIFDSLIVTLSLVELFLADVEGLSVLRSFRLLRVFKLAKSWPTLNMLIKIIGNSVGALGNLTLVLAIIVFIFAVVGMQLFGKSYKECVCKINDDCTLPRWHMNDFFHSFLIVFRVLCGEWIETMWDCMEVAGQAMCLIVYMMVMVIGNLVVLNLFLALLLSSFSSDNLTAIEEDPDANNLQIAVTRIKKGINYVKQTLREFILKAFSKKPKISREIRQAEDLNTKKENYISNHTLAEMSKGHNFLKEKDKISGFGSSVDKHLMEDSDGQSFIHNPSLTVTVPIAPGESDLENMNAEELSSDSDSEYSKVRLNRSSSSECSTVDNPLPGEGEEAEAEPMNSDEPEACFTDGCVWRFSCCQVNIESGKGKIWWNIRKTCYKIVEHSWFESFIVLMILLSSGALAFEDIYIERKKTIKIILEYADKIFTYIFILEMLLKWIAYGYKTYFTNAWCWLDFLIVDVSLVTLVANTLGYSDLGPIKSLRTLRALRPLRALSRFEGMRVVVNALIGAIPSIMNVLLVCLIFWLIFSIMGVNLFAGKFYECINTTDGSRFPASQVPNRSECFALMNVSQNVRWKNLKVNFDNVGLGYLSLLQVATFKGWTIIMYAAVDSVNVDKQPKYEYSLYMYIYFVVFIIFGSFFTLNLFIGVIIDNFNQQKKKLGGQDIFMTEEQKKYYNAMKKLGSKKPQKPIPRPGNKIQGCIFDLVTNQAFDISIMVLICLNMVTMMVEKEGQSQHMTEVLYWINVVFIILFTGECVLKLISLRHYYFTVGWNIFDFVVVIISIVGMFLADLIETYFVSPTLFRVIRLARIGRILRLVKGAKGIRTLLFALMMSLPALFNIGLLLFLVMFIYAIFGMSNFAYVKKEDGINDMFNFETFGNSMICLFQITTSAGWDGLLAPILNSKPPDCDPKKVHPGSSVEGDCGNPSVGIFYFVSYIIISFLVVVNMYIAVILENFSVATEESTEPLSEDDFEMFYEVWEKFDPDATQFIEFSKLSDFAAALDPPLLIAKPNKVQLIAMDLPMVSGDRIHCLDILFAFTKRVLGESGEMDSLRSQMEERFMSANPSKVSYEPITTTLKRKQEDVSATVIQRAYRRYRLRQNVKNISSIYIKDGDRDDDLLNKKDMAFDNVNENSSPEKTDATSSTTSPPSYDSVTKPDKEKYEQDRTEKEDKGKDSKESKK
GPR40 L112A, sequence (O14842 whole entry L112A): as the sequence (O14842 whole entry) above, with L112A counted along it
hRORbeta, sequence (Q92753 whole entry): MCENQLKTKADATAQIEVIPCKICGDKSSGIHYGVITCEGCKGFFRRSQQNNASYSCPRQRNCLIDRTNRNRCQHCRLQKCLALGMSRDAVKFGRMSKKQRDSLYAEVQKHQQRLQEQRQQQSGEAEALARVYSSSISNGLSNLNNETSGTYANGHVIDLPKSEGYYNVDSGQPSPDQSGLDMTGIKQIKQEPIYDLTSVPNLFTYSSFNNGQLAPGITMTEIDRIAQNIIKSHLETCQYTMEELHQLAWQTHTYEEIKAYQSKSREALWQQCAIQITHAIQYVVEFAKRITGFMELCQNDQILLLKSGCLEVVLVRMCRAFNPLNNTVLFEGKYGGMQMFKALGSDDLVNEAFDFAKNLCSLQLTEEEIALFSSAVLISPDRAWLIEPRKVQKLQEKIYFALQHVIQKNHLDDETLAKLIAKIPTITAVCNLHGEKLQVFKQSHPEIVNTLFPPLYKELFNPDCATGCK
GPR40 Y44F, sequence (O14842 whole entry Y44F): as the sequence (O14842 whole entry) above, with Y44F counted along it
GPR40 S123A, sequence (O14842 whole entry S123A): as the sequence (O14842 whole entry) above, with S123A counted along it

COc1ccc(C(=O)N(CC(C)(C)C)c2cccc(C)n2)c(N2CCC(c3cc4ccc([C@@H](CC(=O)O)C5CC5)cc4o3)CC2)c1 [compound 1]
Ki (hRORgamma): > 20 µM
EC50 (GPR40 Y114F): 11 µM
selectivity in selectivity panels [1]: highly selective
EC50 (GPR40 L112F): 0.06 µM
improvement in EC50 in L112F mutant over wild type (GPR40 L112F; cAMP accumulation, 240 min): 3 fold
EC50 (GPR40 Y44F): > 30 µM
glucose excursion in IPGTT (wild type ICR mice): decreases in glucose excursion
insulin secretion in IPGTT (wild type ICR mice): Dose-dependent increases in insulin secretion
EC50 (hD1): > 80 µM
Ki (hERalpha): > 11 µM
glucose excursion in OGTT, GPR120 KO (GPR120 KO mice): significant decrease in glucose excursion
EC50 (human GPR40 [2]): < 0.05 nM
Emax (human GPR40 [2]): 484%
recovery (Rat hepatocyte clearance; no ABT, read-out: Rat Hepatocyte Clearance no ABT % Recovery): 103%
hepatocyte CLint (Rat hepatocyte clearance; no ABT, read-out: Rat Hepatocyte Clearance no ABT Intrinsic Clearance): 12.2 µL/min/1e6 cells
recovery (Rat hepatocyte clearance; with ABT (concentration not stated), read-out: Rat Hepatocyte Clearance ABT % Recovery): 92.8%
hepatocyte CLint (Rat hepatocyte clearance; with ABT, read-out: Rat Hepatocyte Clearance ABT Intrinsic Clearance): 3 µL/min/1e6 cells
Emax (human GPR40 [3]): 110%
Ki (human GPR40 (A1 site); Supplementary Table 1): > 5.59 µM
effect on [3H]-TAK-875 binding (human GPR40 (A1 site); addition of unlabeled compound, membranes from stably transfected cells): enhanced binding activity
affinity modulation factor (α) (human GPR40 (A1 site); allosteric modulator titration equation, [3H]-TAK-875 binding, Fig. 1a): 2.4
Ki (hRORbeta): > 13 µM
EC50 (GPR40 S123A): > 30 µM
PPAR binding or functional activities (PPAR): lack of significant PPAR binding or functional activities
IC50 (hCDK1): > 20 µM
IC50 (hNav1.7): > 30 µM
EC50 (GPR40 L112A): > 30 µM
plasma active GIP concentrations, GPR40 KO (GPR40 KO mice [4]): no effect
plasma total GLP-1 concentrations, GPR40 KO (GPR40 KO mice [4]): no effect
blood glucose in OGTT, GPR40 KO (GPR40 KO mice [5]): No change in blood glucose
pharmacokinetics in mouse (drug exposures in plasma) [6]: dose proportional
